Experimental data: PubChem BioAssay (NCI)
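Exposure lasted 48 hours, with cells grown in 96-well plates and compounds tested at five concentrations. GI50 = concentration required for 50% inhibition of growth. TGI marks complete inhibition of growth.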

Key:
Assay in all cases: DTP human tumour cell line panel, 48 h
SF-268 CNS = system: SF-268 CNS
SF-295 CNS = system: SF-295 CNS
M14 melanoma = system: M14 melanoma
786-0 renal = system: 786-0 renal
NCI-H226 lung = system: NCI-H226 lung
NCI-H522 lung = system: NCI-H522 lung
BT-549 breast = system: BT-549 breast
HS 578T breast = system: HS 578T breast
HL-60(TB) leukemia = system: HL-60(TB) leukemia
TK-10 renal = system: TK-10 renal
UACC-62 melanoma = system: UACC-62 melanoma
DU-145 prostate = system: DU-145 prostate
KM12 colon = system: KM12 colon
OVCAR-3 ovarian = system: OVCAR-3 ovarian
SNB-19 CNS = system: SNB-19 CNS
SK-MEL-2 melanoma = system: SK-MEL-2 melanoma
SF-539 CNS = system: SF-539 CNS
CAKI-1 renal = system: CAKI-1 renal
CCRF-CEM leukemia = system: CCRF-CEM leukemia
HT29 colon = system: HT29 colon
T-47D breast = system: T-47D breast
OVCAR-8 ovarian = system: OVCAR-8 ovarian
PC-3 prostate = system: PC-3 prostate
A549 NSCLC = system: A549 NSCLC
LOX IMVI melanoma = system: LOX IMVI melanoma
A498 renal = system: A498 renal
SW-620 colon = system: SW-620 colon
UACC-257 melanoma = system: UACC-257 melanoma
NCI-H23 lung = system: NCI-H23 lung
HCT-15 colon = system: HCT-15 colon
SK-OV-3 ovarian = system: SK-OV-3 ovarian
MCF7 breast = system: MCF7 breast
HCC-2998 colon = system: HCC-2998 colon
NCI-H460 lung = system: NCI-H460 lung
UO-31 renal = system: UO-31 renal
U251 CNS = system: U251 CNS
MDA-MB-231 breast = system: MDA-MB-231 breast
EKVX NSCLC = system: EKVX NSCLC
HCT-116 colon = system: HCT-116 colon
SN12C renal = system: SN12C renal
COLO 205 colon = system: COLO 205 colon
OVCAR-5 ovarian = system: OVCAR-5 ovarian
ACHN renal = system: ACHN renal
RPMI-8226 leukemia = system: RPMI-8226 leukemia
IGROV1 ovarian = system: IGROV1 ovarian
NCI/ADR-RES ovarian = system: NCI/ADR-RES ovarian
HOP-62 NSCLC = system: HOP-62 NSCLC
K-562 leukemia = system: K-562 leukemia
MALME-3M melanoma = system: MALME-3M melanoma
SK-MEL-5 melanoma = system: SK-MEL-5 melanoma
SK-MEL-28 melanoma = system: SK-MEL-28 melanoma
SNB-75 CNS = system: SNB-75 CNS

Question: For COc1ccc(-c2nc3ccccn3c2/C=C/C(=O)c2cc(OC)c(OC)c(OC)c2)cc1OC, which GI50 (SF-268 CNS) is on record?
Answer: 3.58 µM

Question: And the TGI (SF-268 CNS)?
Answer: 65.2 µM

Question: What about the GI50 (SF-295 CNS) of the same compound?
Answer: 1850 nM

Question: And the TGI (SF-295 CNS)?
Answer: 4.42 µM

Question: What about the GI50 (M14 melanoma) of the same compound?
Answer: 4.48 µM

Question: And the TGI (M14 melanoma)?
Answer: 45.1 µM

Question: And the GI50 (786-0 renal)?
Answer: 3.74 µM

Question: And the TGI (786-0 renal)?
Answer: 71 µM

Question: What about the GI50 (NCI-H226 lung) of the same compound?
Answer: 6.1 µM

Question: And the TGI (NCI-H226 lung)?
Answer: 40.6 µM

Question: What about the GI50 (NCI-H522 lung) of the same compound?
Answer: 2740 nM

Question: What about the TGI (NCI-H522 lung) of the same compound?
Answer: 35.5 µM

Question: What about the GI50 (BT-549 breast) of the same compound?
Answer: 899 nM

Question: What about the TGI (BT-549 breast) of the same compound?
Answer: 3.2 µM

Question: What about the GI50 (HS 578T breast) of the same compound?
Answer: 1850 nM

Question: And the TGI (HS 578T breast)?
Answer: 9.82 µM

Question: And the GI50 (HL-60(TB) leukemia)?
Answer: 2530 nM

Question: What about the TGI (HL-60(TB) leukemia) of the same compound?
Answer: 6.12 µM

Question: What about the GI50 (TK-10 renal) of the same compound?
Answer: 3.28 µM

Question: What about the TGI (TK-10 renal) of the same compound?
Answer: 8.74 µM

Question: And the GI50 (UACC-62 melanoma)?
Answer: 4.86 µM

Question: And the TGI (UACC-62 melanoma)?
Answer: 22.1 µM

Question: And the GI50 (DU-145 prostate)?
Answer: 2630 nM

Question: And the TGI (DU-145 prostate)?
Answer: 8.14 µM

Question: What about the GI50 (KM12 colon) of the same compound?
Answer: 2520 nM

Question: And the TGI (KM12 colon)?
Answer: 11.4 µM

Question: And the GI50 (OVCAR-3 ovarian)?
Answer: 2470 nM

Question: And the TGI (OVCAR-3 ovarian)?
Answer: 8.56 µM

Question: And the GI50 (SNB-19 CNS)?
Answer: 4.91 µM

Question: What about the TGI (SNB-19 CNS) of the same compound?
Answer: > 100 µM

Question: And the GI50 (SK-MEL-2 melanoma)?
Answer: 2370 nM

Question: What about the TGI (SK-MEL-2 melanoma) of the same compound?
Answer: 7.19 µM

Question: What about the GI50 (SF-539 CNS) of the same compound?
Answer: 2710 nM

Question: What about the TGI (SF-539 CNS) of the same compound?
Answer: 14.7 µM

Question: What about the GI50 (CAKI-1 renal) of the same compound?
Answer: 1390 nM

Question: What about the TGI (CAKI-1 renal) of the same compound?
Answer: 20.2 µM

Question: What about the GI50 (CCRF-CEM leukemia) of the same compound?
Answer: 1540 nM

Question: What about the TGI (CCRF-CEM leukemia) of the same compound?
Answer: > 100 µM

Question: What about the GI50 (HT29 colon) of the same compound?
Answer: 3.2 µM

Question: And the TGI (HT29 colon)?
Answer: > 100 µM

Question: What about the GI50 (T-47D breast) of the same compound?
Answer: 3.01 µM

Question: What about the TGI (T-47D breast) of the same compound?
Answer: > 100 µM

Question: What about the GI50 (OVCAR-8 ovarian) of the same compound?
Answer: 2830 nM

Question: And the TGI (OVCAR-8 ovarian)?
Answer: 11.1 µM

Question: And the GI50 (PC-3 prostate)?
Answer: 3.71 µM

Question: What about the TGI (PC-3 prostate) of the same compound?
Answer: > 100 µM

Question: What about the GI50 (A549 NSCLC) of the same compound?
Answer: 3.86 µM

Question: And the TGI (A549 NSCLC)?
Answer: 30.7 µM

Question: And the GI50 (LOX IMVI melanoma)?
Answer: 2260 nM

Question: And the TGI (LOX IMVI melanoma)?
Answer: 6.62 µM

Question: And the GI50 (A498 renal)?
Answer: 2930 nM

Question: What about the TGI (A498 renal) of the same compound?
Answer: 17.8 µM

Question: What about the GI50 (SW-620 colon) of the same compound?
Answer: 2780 nM

Question: And the TGI (SW-620 colon)?
Answer: 55.6 µM

Question: What about the GI50 (UACC-257 melanoma) of the same compound?
Answer: 3.24 µM

Question: And the TGI (UACC-257 melanoma)?
Answer: 15.4 µM

Question: What about the GI50 (NCI-H23 lung) of the same compound?
Answer: 3.78 µM

Question: What about the TGI (NCI-H23 lung) of the same compound?
Answer: > 100 µM

Question: What about the GI50 (HCT-15 colon) of the same compound?
Answer: 3.73 µM

Question: And the TGI (HCT-15 colon)?
Answer: 35.1 µM

Question: And the GI50 (SK-OV-3 ovarian)?
Answer: 4.92 µM

Question: What about the TGI (SK-OV-3 ovarian) of the same compound?
Answer: > 100 µM

Question: What about the GI50 (MCF7 breast) of the same compound?
Answer: 2760 nM

Question: What about the TGI (MCF7 breast) of the same compound?
Answer: > 100 µM

Question: And the GI50 (HCC-2998 colon)?
Answer: 3.79 µM

Question: And the TGI (HCC-2998 colon)?
Answer: 15.1 µM

Question: What about the GI50 (NCI-H460 lung) of the same compound?
Answer: 2990 nM

Question: And the TGI (NCI-H460 lung)?
Answer: 12.6 µM

Question: What about the GI50 (UO-31 renal) of the same compound?
Answer: 552 nM

Question: And the TGI (UO-31 renal)?
Answer: 12.7 µM

Question: What about the GI50 (U251 CNS) of the same compound?
Answer: 2910 nM

Question: What about the TGI (U251 CNS) of the same compound?
Answer: 65.5 µM

Question: And the GI50 (MDA-MB-231 breast)?
Answer: 3.28 µM

Question: What about the TGI (MDA-MB-231 breast) of the same compound?
Answer: 45 µM

Question: And the GI50 (EKVX NSCLC)?
Answer: 1710 nM

Question: And the TGI (EKVX NSCLC)?
Answer: > 100 µM

Question: And the GI50 (HCT-116 colon)?
Answer: 2620 nM

Question: What about the TGI (HCT-116 colon) of the same compound?
Answer: 12 µM

Question: What about the GI50 (SN12C renal) of the same compound?
Answer: 4.1 µM

Question: What about the TGI (SN12C renal) of the same compound?
Answer: 83.7 µM

Question: And the GI50 (COLO 205 colon)?
Answer: 3.92 µM

Question: And the TGI (COLO 205 colon)?
Answer: > 100 µM

Question: And the GI50 (OVCAR-5 ovarian)?
Answer: 7.38 µM

Question: And the TGI (OVCAR-5 ovarian)?
Answer: 53.3 µM

Question: What about the GI50 (ACHN renal) of the same compound?
Answer: 3.22 µM

Question: What about the TGI (ACHN renal) of the same compound?
Answer: 15.7 µM

Question: What about the GI50 (RPMI-8226 leukemia) of the same compound?
Answer: 398 nM

Question: What about the TGI (RPMI-8226 leukemia) of the same compound?
Answer: 2510 nM

Question: And the GI50 (IGROV1 ovarian)?
Answer: 3.03 µM

Question: What about the TGI (IGROV1 ovarian) of the same compound?
Answer: 12.1 µM

Question: And the GI50 (NCI/ADR-RES ovarian)?
Answer: 2180 nM

Question: What about the TGI (NCI/ADR-RES ovarian) of the same compound?
Answer: 8.04 µM

Question: What about the GI50 (HOP-62 NSCLC) of the same compound?
Answer: 4.42 µM

Question: And the TGI (HOP-62 NSCLC)?
Answer: 30 µM

Question: What about the GI50 (K-562 leukemia) of the same compound?
Answer: 2990 nM

Question: What about the TGI (K-562 leukemia) of the same compound?
Answer: > 100 µM

Question: And the GI50 (MALME-3M melanoma)?
Answer: 2360 nM

Question: What about the TGI (MALME-3M melanoma) of the same compound?
Answer: 7.34 µM

Question: And the GI50 (SK-MEL-5 melanoma)?
Answer: 1500 nM

Question: And the TGI (SK-MEL-5 melanoma)?
Answer: 2920 nM

Question: And the GI50 (SK-MEL-28 melanoma)?
Answer: 3.3 µM

Question: And the TGI (SK-MEL-28 melanoma)?
Answer: 14.7 µM

Question: And the GI50 (SNB-75 CNS)?
Answer: 3.92 µM

Question: And the TGI (SNB-75 CNS)?
Answer: > 100 µM
